Measured values from patent US10125125B2, “N-(heteroaryl)-sulfonamide derivatives useful as S100-inhibitors” (Active Biotech AB, priority 2013, dated 2018).
pIC50: −log10 of the molar value. Like-named read-outs stand apart in the source and are kept apart here.

Tests used:
[1] = Prodrug assay: plasma concentrations of prodrugs and demethylated parents after cassette dosing, LC-MS; assay type: in vivo, C57 Bl/6 mice; settings: C57 Bl/6, mouse, solution, read-out: Parent (demethylated compound) Conc. in plasma after prodrug dosing
Method: ABR-239313, 239470 and 239749 were administered to seven C57 Bl/6 mice as a cassette formulation either intravenously (4 animals, nominal 1 mg/kg) or per oral (3 animals, nominal 5 mg/kg).
Blood samples were collected at time points ranging from 5 minutes to 7 hours after administration. After sample withdrawal, plasma was directly separated and frozen until analysis.
The plasma as well as the formulation samples were analyzed with respect to the concentration of ABR-239313, 239470, 239749 and the corresponding demethylated compounds, i.e. Examples 9, 75 and 73 (ABR-239247, 239417 and 239167) by means of LC-MS.
The samples were precipitated with acidified acetonitrile and centrifuged prior to injection on LC-MS system (consisting of a triple quadrupole instrument operated in negative MRM ionization mode, and a fast-gradient reversed-phase LC on a Symmetry Shield RP18, 2×30 mm, 3.5 um column).
In Table 3 the concentrations of each analyte are presented.

[2] = target: biotinylated human S100A9 : rhRAGE-Fc interaction (Homo sapiens (Human), UniProt P06702); test: AlphaScreen inhibition assay, Biot-hS100A9:hRAGE-Fc (S100A9-RAGE inhibition assay); assay type: binding
Sequence of biotinylated human S100A9 : rhRAGE-Fc interaction (P06702 whole entry): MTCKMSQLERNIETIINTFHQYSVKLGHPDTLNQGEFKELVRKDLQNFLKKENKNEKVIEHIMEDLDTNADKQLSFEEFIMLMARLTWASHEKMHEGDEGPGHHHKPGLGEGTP
Excerpt: FIG. 1 is a schematic representation of an assay of the inhibition of the interaction between biotinylated human S100A9 and human RAGE-Fc using a small molecule S100A9 binder.
Inhibition Assay, Biot-hS100A9:hRAGE-Fc
The AlphaScreen (Amplified Luminescent Proximity Homogeneous Assay) contains two types of beads, Alpha Donor beads and Acceptor beads (PerkinElmer). Upon laser excitation at 680 nm a photosensitizer in the Donor bead converts ambient oxygen to a more excited singlet state. The singlet oxygen molecule diffuses (maximum 200 nm) to react with a thioxene derivative in the Acceptor bead and generates a chemiluminescence reaction. Fluorophores in the Acceptor bead subsequently emit light at 520-620 nm which can be detected in the EnVision® Multilabel plate Reader (PerkinElmer). The beads are light sensitive and all work with the beads is performed under subdued light conditions or using green filters on light sources (Roscolux Chroma Green #389, Rosco).
In the AlphaScreen Inhibition Assay described here, protein A (Staphylococcus aureus) conjugated Acceptor beads are used together with streptavidin coated Donor beads (Perkin Elmer 6760617M). The Acceptor beads are pre-incubated with Fc-tagged recombinant human RAGE (rhRAGE-Fc) allowing binding of the rhRAGE-Fc to protein A on the beads. Biotinylated human S100A9 (biot-hS100A9) is pre-incubated with the low molecular test compounds. The pre-mixes are then added to the wells of a micro-plate and incubated allowing interaction between biot-hS100A9 and rhRAGE-Fc. Subsequent addition of streptavidin coated Donor beads causes binding of the streptavidin to the biotinylated hS100A9. After an additional incubation the signal is measured.
Without inhibitory compounds, the interaction of biot-hS100A9 to rhRAGE-Fc will bring the Acceptor and Donor beads in close proximity thus generating a high signal. With an inhibitor present the complex will not form resulting in a decreased signal.
Chemicals and reagents. • AlphaScreen® General IgG (Protein A) Detection Kit, (PerkinElmer 6760617M) • HBS-P buffer (GE Healthcare, BR-1003-68) • HBS-N buffer (GE Healthcare, BR-1003-69) • CaCl2 in HBS-P • ZnCl2 in Milli-Q water • DMSO • Biotinylated hS100A9, (biotinylated via cystein by EZ-link Iodoacetyl-PEG2-Biotin reagent (Pierce no. 21334), in HBS-N • rhRAGE-Fc (R&D Systems, 1145-RG-50), in HBS-P
The AlphaScreen assay method is used for screening of the inhibitory effect of different compound samples at fixed concentrations or for IC50 determination by varying the compound concentrations. Samples of test compounds and references are prepared from solutions in DMSO. Relevant reference inhibitors and DMSO are used as controls for defined inhibition and non-inhibition, respectively in the assay. The percent inhibition in assay for test compounds and references are calculated by comparing their obtained assay signals with the signal values for the control with only DMSO (no compound).
Assay concentration of biotinylated hS100A9 and rhRAGE-Fc are batch dependent, and are determined and defined by separate cross-titration experiments using this AlphaScreen inhibition method to verify the optimal setup regarding signal strength and achievement of a defined inhibition with relevant reference compounds. The Final assay concentrations of Acceptor and Donor beads are 20 μg/mL.
Experimental Set Up for Screening, Preparation of Solutions and Beads.
Assay buffer is prepared by adding CaCl2 and ZnCl2 to HBS-P and is used freshly prepared in the experiment.
Biotin-hS100A9 solution for the experiment is prepared by dilution of appropriate amount of stock solution biot-hS100A9 in assay buffer (with CaCl2 and ZnCl2) and incubation in room temperature for 30 minutes.
rhRAGE-Fc solution for the experiment is prepared by dilution appropriate amount of rhRAGE-Fc stock in assay buffer.
Protein A Acceptor beads are diluted in assay buffer and are added to an equal volume of the prepared diluted rhRAGE-Fc solution.

[3] = intravenous, i.v. cassette of prodrugs, nominal 1 mg/kg
[4] = oral, p.o. cassette of prodrugs, nominal 5 mg/kg

Structure (SMILES) | pIC50 [2] | further results
O=S(=O)(Cc1cc(Cl)cc(Cl)c1)Nc1ncc(Cl)cc1O [Example 9, N-(5-chloro-3-hydroxypyridin-2-yl)-1-(3,5-dichlorophenyl)methanesulfonamide] | 6.92 | concentration at 0.083 h ([1]; intravenous, i.v. cassette of prodrugs, nominal 1 mg/kg, 0.083 h): 44 nM; concentration at 0.5 h [1, 3]: 5 nM; concentration at 1 h [1, 3]: 3 nM; concentration at 2 h [1, 3]: 6 nM; concentration at 4 h [1, 3]: 4 nM; concentration at 7 h [1, 3]: 4 nM; concentration at 0.5 h [1, 4]: 45 nM; concentration at 1 h [1, 4]: 26 nM; concentration at 2 h [1, 4]: 21 nM; concentration at 4 h [1, 4]: 12 nM; concentration at 7 h [1, 4]: 19 nM
CS(=O)(=O)c1cnc(NS(=O)(=O)Cc2cc(Cl)cc(Cl)c2)c(O)n1 [Example 112, 1-(3,5-dichlorophenyl)-N-(3-hydroxy-5-methanesulfonylpyrazin-2-yl)methane-sulfonamide] | 6.38 | 
N#Cc1ccc(Cl)c(CS(=O)(=O)Nc2nnc(Cl)cc2O)c1 [Example 85, N-(6-chloro-4-hydroxypyridazin-3-yl)-1-(2-chloro-5-cyanophenyl)methane-sulfonamide] | 6.01 | 
O=S(=O)(Nc1ncc(Cl)cc1O)c1cncc(Br)c1 [Example 40, 5-bromo-N-(5-chloro-3-hydroxypyridin-2-yl)pyridine-3-sulfonamide] | 5.52 | 
O=S(=O)(Nc1cncc(Cl)c1O)c1ccc(OC(F)(F)F)c(Cl)c1 [Example 102, 3-chloro-N-(5-chloro-4-hydroxypyridin-3-yl)-4-(trifluoromethoxy)benzene-1-sulfonamide] | 5.66 | 
O=S(=O)(Cc1cc(Cl)sc1Cl)Nc1ncc(Cl)cc1O [Example 20, N-(5-chloro-3-hydroxypyridin-2-yl)-1-(2,5-dichlorothiophen-3-yl)methane-sulfonamide] | > 6.00 | 
N#Cc1cnc(NS(=O)(=O)Cc2cc(Cl)cc(Cl)c2)c(O)n1 [Example 103, N-(5-cyano-3-hydroxypyrazin-2-yl)-1-(3,5-dichlorophenyl)methanesulfonamide] | > 6.00 | 
O=S(=O)(Cc1ccc(F)c(F)c1)Nc1nnc(Cl)cc1O [Example 76, N-(6-chloro-4-hydroxypyridazin-3-yl)-1-(3,4-difluorophenyl)methanesulfonamide] | > 6.00 | 
O=S(=O)(Nc1cc(Cl)cnc1O)c1cc(Cl)sc1Cl [Example 74, 2,5-dichloro-N-(5-chloro-2-hydroxypyridin-3-yl)thiophene-3-sulfonamide] | 5.59 | 
O=S(=O)(Cc1cc(Cl)cc(Cl)c1)Nc1ncc(S(=O)(=O)C2CCCC2)cc1O [Example 131, N-[5-(cyclopentanesulfonyl)-3-hydroxypyridin-2-yl]-1-(3,5-dichlorophenyl)methane-sulfonamide] | 6.92 | 
O=S(=O)(Cc1cc(Cl)cc(Cl)c1)Nc1cncc(Br)c1O [Example 97, N-(5-bromo-4-hydroxypyridin-3-yl)-1-(3,5-dichlorophenyl)methanesulfonamide] | 5.42 | 
O=S(=O)(Nc1nnc(Cl)cc1O)c1cc(Cl)cc(Cl)c1 [Example 95, 3,5-dichloro-N-(6-chloro-4-hydroxypyridazin-3-yl)benzene-1-sulfonamide] | 6.15 | 
O=S(=O)(Cc1cc(Cl)cc(Cl)c1)Nc1nnc(Cl)cc1O [Example 36, N-(6-chloro-4-hydroxypyridazin-3-yl)-1-(3,5-dichlorophenyl)methanesulfonamide] | 7.00 | 
COc1ncc(S(=O)(=O)Nc2cncc(Cl)c2O)cc1Br [Example 59, 5-bromo-N-(5-chloro-4-hydroxypyridin-3-yl)-6-methoxypyridine-3-sulfonamide] | 5.55 | 
COc1ncc(S(=O)(=O)Nc2nnc(Cl)cc2O)cc1Br [Example 114, 5-bromo-N-(6-chloro-4-hydroxypyridazin-3-yl)-6-methoxypyridine-3-sulfonamide] | 6.00 | 

The next lines start with results.

pIC50 [2] | Structure (SMILES) | further results
6.92 | N#Cc1cnc(NS(=O)(=O)Cc2cc(Cl)cc(Cl)c2)c(O)c1 [Example 189, N-(5-cyano-3-hydroxypyridin-2-yl)-1-(3,5-dichlorophenyl)methanesulfonamide] | 
> 6.00 | O=S(=O)(Cc1cc(Cl)cc(Cl)c1)Nc1ccncc1O [Example 167, 1-(3,5-dichlorophenyl)-N-(3-hydroxypyridin-4-yl)methanesulfonamide] | 
> 6.00 | O=S(=O)(Cc1cc(Cl)cc(Cl)c1)Nc1cc(Cl)c(Cl)nc1O [Example 173, N-(5,6-dichloro-2-hydroxypyridin-3-yl)-1-(3,5-dichlorophenyl)methanesulfonamide] | 
6.74 | O=S(=O)(Cc1cc(Cl)cc(Cl)c1)Nc1nc(Cl)ncc1O [Example 143, N-(2-chloro-5-hydroxypyrimidin-4-yl)-1-(3,5-dichlorophenyl)methanesulfonamide] | 
> 6.00 | O=S(=O)(Nc1nc(Cl)ncc1O)c1ccc(Cl)c(Cl)c1 [Example 144, 3,4-dichloro-N-(2-chloro-5-hydroxypyrimidin-4-yl)benzene-1-sulfonamide] | 
> 6.00 | O=S(=O)(Cc1cc(Cl)cc(Cl)c1)Nc1nnc(S(=O)(=O)CCCO)cc1O [Example 139, 1-(3,5-dichlorophenyl)-N-[4-hydroxy-6-(3-hydroxypropanesulfonyl)pyridazin-3-yl]methanesulfonamide] | 
< 6.00 | CS(=O)(=O)c1cc(O)c(NS(=O)(=O)c2cc(Cl)cc(Cl)c2)cn1 [Example 155, 3,5-dichloro-N-(4-hydroxy-6-methanesulfonylpyridin-3-yl)benzene-1-sulfonamide] | 
